Experimental data taken from PubChem BioAssay (NCI).
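Method: 48-hour compound exposure of cells in 96-well plates, five concentrations, linear interpolation of endpoints. TGI: concentration producing complete growth inhibition.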 Where a SMILES comes first, the peptide text is derived from it. [ ]: non-standard residue; d: D form. The star is where a group is joined. Phe(4-NO2) = N[CH](Cc1ccc([N+](=O)[O-])cc1)C(=O)O; Boc = CC(C)(C)OC(=O)*; OtBu = CC(C)(C)O*

Legend:
Test in all cases: growth of human tumour cells (NCI), 48 h
K-562 leukemia = system: K-562 leukemia
SW-620 colon = system: SW-620 colon
HOP-92 NSCLC = system: HOP-92 NSCLC
UO-31 renal = system: UO-31 renal
CCRF-CEM leukemia = system: CCRF-CEM leukemia
SNB-19 CNS = system: SNB-19 CNS
PC-3 prostate = system: PC-3 prostate
MDA-N = system: MDA-N
MALME-3M melanoma = system: MALME-3M melanoma
SK-MEL-5 melanoma = system: SK-MEL-5 melanoma
M14 melanoma = system: M14 melanoma
OVCAR-3 ovarian = system: OVCAR-3 ovarian
SF-268 CNS = system: SF-268 CNS
IGROV1 ovarian = system: IGROV1 ovarian
OVCAR-5 ovarian = system: OVCAR-5 ovarian
MDA-MB-435 = system: MDA-MB-435
HT29 colon = system: HT29 colon
MDA-MB-231 breast = system: MDA-MB-231 breast
COLO 205 colon = system: COLO 205 colon
U251 CNS = system: U251 CNS
SK-MEL-28 melanoma = system: SK-MEL-28 melanoma
CAKI-1 renal = system: CAKI-1 renal
T-47D breast = system: T-47D breast
HCT-116 colon = system: HCT-116 colon
SF-539 CNS = system: SF-539 CNS
A549 NSCLC = system: A549 NSCLC
MCF7 breast = system: MCF7 breast
MOLT-4 leukemia = system: MOLT-4 leukemia
SF-295 CNS = system: SF-295 CNS
TK-10 renal = system: TK-10 renal
HCC-2998 colon = system: HCC-2998 colon
OVCAR-8 ovarian = system: OVCAR-8 ovarian
SNB-75 CNS = system: SNB-75 CNS
UACC-257 melanoma = system: UACC-257 melanoma
786-0 renal = system: 786-0 renal
HS 578T breast = system: HS 578T breast
NCI-H226 lung = system: NCI-H226 lung
RPMI-8226 leukemia = system: RPMI-8226 leukemia
NCI-H23 lung = system: NCI-H23 lung
HCT-15 colon = system: HCT-15 colon
HL-60(TB) leukemia = system: HL-60(TB) leukemia
SN12C renal = system: SN12C renal
HOP-62 NSCLC = system: HOP-62 NSCLC
NCI-H460 lung = system: NCI-H460 lung
RXF 393 renal = system: RXF 393 renal
SK-MEL-2 melanoma = system: SK-MEL-2 melanoma
ACHN renal = system: ACHN renal
KM12 colon = system: KM12 colon
LOX IMVI melanoma = system: LOX IMVI melanoma
EKVX NSCLC = system: EKVX NSCLC
DU-145 prostate = system: DU-145 prostate
OVCAR-4 ovarian = system: OVCAR-4 ovarian
UACC-62 melanoma = system: UACC-62 melanoma
NCI-H522 lung = system: NCI-H522 lung
A498 renal = system: A498 renal
SK-OV-3 ovarian = system: SK-OV-3 ovarian
NCI/ADR-RES ovarian = system: NCI/ADR-RES ovarian
SR leukemia = system: SR leukemia

What does the source list for `C=C(CN(C)C)C1(c2ccccc2)CC2(CCCC2)C(=O)O1` (configuration not stated)?
TGI (K-562 leukemia): > 100 µM; TGI (SW-620 colon): > 100 µM; TGI (HOP-92 NSCLC): 56.1 µM; TGI (UO-31 renal): 62.9 µM; TGI (CCRF-CEM leukemia): 53.4 µM; TGI (SNB-19 CNS): > 100 µM; TGI (PC-3 prostate): > 100 µM; TGI (MDA-N): > 100 µM; TGI (MALME-3M melanoma): > 100 µM; TGI (SK-MEL-5 melanoma): > 100 µM; TGI (M14 melanoma): > 100 µM; TGI (OVCAR-3 ovarian): > 100 µM; TGI (SF-268 CNS): > 100 µM; TGI (IGROV1 ovarian): > 100 µM; TGI (OVCAR-5 ovarian): > 100 µM; TGI (MDA-MB-435): > 100 µM; TGI (HT29 colon): 74.7 µM; TGI (MDA-MB-231 breast): > 100 µM; TGI (COLO 205 colon): 74.7 µM; TGI (U251 CNS): > 100 µM; TGI (SK-MEL-28 melanoma): > 100 µM; TGI (CAKI-1 renal): > 100 µM; TGI (T-47D breast): > 100 µM; TGI (HCT-116 colon): > 100 µM; TGI (SF-539 CNS): > 100 µM; TGI (A549 NSCLC): > 100 µM; TGI (MCF7 breast): > 100 µM; TGI (MOLT-4 leukemia): 78.1 µM; TGI (SF-295 CNS): > 100 µM; TGI (TK-10 renal): > 100 µM; TGI (HCC-2998 colon): > 100 µM; TGI (OVCAR-8 ovarian): > 100 µM; TGI (SNB-75 CNS): > 100 µM; TGI (UACC-257 melanoma): > 100 µM; TGI (786-0 renal): > 100 µM; TGI (HS 578T breast): > 100 µM; TGI (NCI-H226 lung): > 100 µM; TGI (RPMI-8226 leukemia): > 100 µM; TGI (NCI-H23 lung): 82.4 µM; TGI (HCT-15 colon): > 100 µM; TGI (HL-60(TB) leukemia): 53.8 µM; TGI (SN12C renal): > 100 µM; TGI (HOP-62 NSCLC): > 100 µM; TGI (NCI-H460 lung): > 100 µM; TGI (RXF 393 renal): > 100 µM; TGI (SK-MEL-2 melanoma): > 100 µM; TGI (ACHN renal): > 100 µM; TGI (KM12 colon): > 100 µM; TGI (LOX IMVI melanoma): > 100 µM; TGI (EKVX NSCLC): > 100 µM; TGI (DU-145 prostate): > 100 µM; TGI (OVCAR-4 ovarian): > 100 µM; TGI (UACC-62 melanoma): > 100 µM; TGI (NCI-H522 lung): 47.5 µM; TGI (A498 renal): > 100 µM; TGI (SK-OV-3 ovarian): > 100 µM

`CC(=O)NC(CCC(=O)OC(C)(C)C)C(=O)NC(CCC(=O)OC(C)(C)C)C(=O)NC(Cc1ccc([N+](=O)[O-])cc1)C(=O)NC(CCCCNC(=O)OC(C)(C)C)C(=O)NC(CCCCNC(=O)OC(C)(C)C)C(=O)NCC(=O)O` (configuration not stated) (Ac-E(OtBu)E(OtBu)[Phe(4-NO2)]K(Boc)K(Boc)G-OH; configuration not given here) was tested. Which TGI (K-562 leukemia) did it give?
Its TGI is > 100 µM.

What about the TGI (SW-620 colon) of the same compound?
Its TGI is > 100 µM.

What about the TGI (HOP-92 NSCLC) of the same compound?
The TGI was > 100 µM.

And the TGI (UO-31 renal)?
The TGI was > 100 µM.

And the TGI (CCRF-CEM leukemia)?
The TGI was > 100 µM.

And the TGI (SNB-19 CNS)?
The TGI was > 100 µM.

And the TGI (PC-3 prostate)?
The TGI was > 100 µM.

What about the TGI (MDA-N) of the same compound?
The TGI was > 100 µM.

What about the TGI (MALME-3M melanoma) of the same compound?
Its TGI is > 100 µM.

What about the TGI (SK-MEL-5 melanoma) of the same compound?
The TGI was > 100 µM.

What about the TGI (M14 melanoma) of the same compound?
Its TGI is 53.5 µM.

What about the TGI (NCI/ADR-RES ovarian) of the same compound?
The TGI was > 100 µM.

And the TGI (OVCAR-3 ovarian)?
Its TGI is > 100 µM.

What about the TGI (SF-268 CNS) of the same compound?
The TGI was > 100 µM.

And the TGI (IGROV1 ovarian)?
Its TGI is > 100 µM.

What about the TGI (OVCAR-5 ovarian) of the same compound?
Its TGI is > 100 µM.

And the TGI (MDA-MB-435)?
The TGI was > 100 µM.

What about the TGI (HT29 colon) of the same compound?
Its TGI is > 100 µM.

What about the TGI (MDA-MB-231 breast) of the same compound?
Its TGI is > 100 µM.

What about the TGI (COLO 205 colon) of the same compound?
Its TGI is > 100 µM.

And the TGI (U251 CNS)?
The TGI was > 100 µM.

What about the TGI (SK-MEL-28 melanoma) of the same compound?
Its TGI is > 100 µM.

What about the TGI (CAKI-1 renal) of the same compound?
Its TGI is > 100 µM.

What about the TGI (T-47D breast) of the same compound?
The TGI was > 100 µM.

What about the TGI (HCT-116 colon) of the same compound?
The TGI was > 100 µM.

And the TGI (SF-539 CNS)?
The TGI was > 100 µM.

And the TGI (SR leukemia)?
The TGI was > 100 µM.

What about the TGI (A549 NSCLC) of the same compound?
Its TGI is > 100 µM.

And the TGI (MCF7 breast)?
The TGI was > 100 µM.

What about the TGI (MOLT-4 leukemia) of the same compound?
Its TGI is > 100 µM.

What about the TGI (SF-295 CNS) of the same compound?
Its TGI is > 100 µM.

What about the TGI (TK-10 renal) of the same compound?
Its TGI is > 100 µM.

What about the TGI (HCC-2998 colon) of the same compound?
The TGI was > 100 µM.

And the TGI (OVCAR-8 ovarian)?
The TGI was > 100 µM.

And the TGI (SNB-75 CNS)?
Its TGI is > 100 µM.

What about the TGI (UACC-257 melanoma) of the same compound?
The TGI was > 100 µM.

And the TGI (786-0 renal)?
The TGI was > 100 µM.

And the TGI (NCI-H226 lung)?
The TGI was > 100 µM.

And the TGI (RPMI-8226 leukemia)?
The TGI was > 100 µM.

And the TGI (NCI-H23 lung)?
The TGI was > 100 µM.

What about the TGI (HCT-15 colon) of the same compound?
Its TGI is > 100 µM.

What about the TGI (HL-60(TB) leukemia) of the same compound?
The TGI was > 100 µM.

What about the TGI (SN12C renal) of the same compound?
Its TGI is > 100 µM.

And the TGI (HOP-62 NSCLC)?
The TGI was > 100 µM.

And the TGI (NCI-H460 lung)?
The TGI was > 100 µM.

What about the TGI (RXF 393 renal) of the same compound?
Its TGI is > 100 µM.

And the TGI (SK-MEL-2 melanoma)?
The TGI was > 100 µM.

And the TGI (ACHN renal)?
The TGI was > 100 µM.

And the TGI (KM12 colon)?
Its TGI is > 100 µM.

And the TGI (LOX IMVI melanoma)?
The TGI was > 100 µM.

And the TGI (EKVX NSCLC)?
Its TGI is > 100 µM.

What about the TGI (DU-145 prostate) of the same compound?
Its TGI is > 100 µM.

And the TGI (OVCAR-4 ovarian)?
Its TGI is > 100 µM.

And the TGI (UACC-62 melanoma)?
The TGI was > 100 µM.

What about the TGI (NCI-H522 lung) of the same compound?
Its TGI is > 100 µM.

And the TGI (SK-OV-3 ovarian)?
Its TGI is > 100 µM.
